What follows are molecules tested against T1, recombinant Plk1 protein (Homo sapiens, UniProt P53350) (assay: Plk1 kinase activity inhibition assay (33P-ATP, alpha casein substrate, flash plates)). Conditions: enzymatic assay, 100 nM Li-ATP, 80 minutes at 30° C.
T1 construct: histidine tag (N); made in house; host or cells: SF9 insect cells
T1 sequence (P53350 whole entry): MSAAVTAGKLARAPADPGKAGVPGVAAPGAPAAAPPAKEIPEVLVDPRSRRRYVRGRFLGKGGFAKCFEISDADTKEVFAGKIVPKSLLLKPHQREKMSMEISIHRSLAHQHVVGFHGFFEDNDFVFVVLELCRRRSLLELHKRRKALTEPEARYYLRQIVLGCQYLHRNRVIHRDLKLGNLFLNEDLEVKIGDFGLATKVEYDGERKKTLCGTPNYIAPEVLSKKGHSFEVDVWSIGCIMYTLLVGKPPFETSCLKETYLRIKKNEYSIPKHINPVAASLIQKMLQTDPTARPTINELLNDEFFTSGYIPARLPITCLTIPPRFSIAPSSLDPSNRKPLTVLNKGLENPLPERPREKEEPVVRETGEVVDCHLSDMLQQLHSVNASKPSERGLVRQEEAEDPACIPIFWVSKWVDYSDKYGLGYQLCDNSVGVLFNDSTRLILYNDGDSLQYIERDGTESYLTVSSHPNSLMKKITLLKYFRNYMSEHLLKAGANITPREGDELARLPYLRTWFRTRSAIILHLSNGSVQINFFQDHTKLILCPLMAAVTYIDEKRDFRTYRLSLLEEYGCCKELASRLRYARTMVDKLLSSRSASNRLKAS
Assay type: biochemical
Procedure: The inhibition of Plk1 kinase activity can be measured using recombinant Plk1 protein expressed as an N-terminally histidine-tagged protein in SF9 insect cells and alpha casein as substrate. The Plk1 assay is run in 96 well plates by incubating 50 to 100 ng per well recombinant Plk1, 500 ng per well alpha casein (Sigma, # C-6780) as substrate, 10 μl of compound of invention (test compounds were dissolved as 20 mM solutions in dimethylsulfoxide (DMSO) and subsequently diluted), and 100 nM Li-ATP (including ^33P-ATP) in 100 μl of reaction buffer ([…] HEPES, pH 7.5; 3 mM MgCl2; 3 mM MnCl2; 3 μM Na-Orthovanadat; 1 mM DTT; 1 μg/ml PEG 8000) for 80 minutes at 30° C. The reactions are terminated by adding 100 μl stopping buffer (2% H3PO4 for 5 minutes) and are washed 3 times with washing solution (0.9% NaCl). Determining ^33P incorporated into the protein substrate alpha casein, the detection is based on the adhesion of the phosphorylated protein to the surface of scintillator-coated flash plates (Perkin Elmer, USA; #SMP-200). Phosphorylation of alpha casein is measured by counting the radioactivity bound to the plate for 60 sec. using a plate reader (Perkin Elmer, USA; Wallac Microbeta). By this method, the IC50 value of the Plk1 inhibition is determined as described above.
In the case of `NC(=O)c1sc(-n2cnc3ccncc32)cc1OCc1ccccc1OC(F)(F)F` [Example 29, 5-(3H-imidazo[4,5-c]pyridin-3-yl)-3-{[2-(trifluoromethoxy)benzyl]oxy}thiophene-2-carboxamide], the IC50 is reported as 10 to 100 nM.
`NC(=O)c1sc(-n2cnc3ccncc32)cc1OCc1cccc(C(F)(F)F)c1` [Example 30, 5-(3H-imidazo[4,5-c]pyridin-3-yl)-3-{[3-(trifluoromethyl)benzyl]oxy}thiophene-2-carboxamide] showed an IC50 of 100 to 1000 nM.
Work on `NC(=O)c1sc(-n2cnc3ccncc32)cc1OCc1ccccc1F` [Example 31, 3-[(2-fluorobenzyl)oxy]-5-(3H-imidazo[4,5-c]pyridin-3-yl)thiophene-2-carboxamide] yielded an IC50 of 10 to 100 nM.
`C[C@@H](Oc1cc(-n2cnc3ccncc32)sc1C(N)=O)c1ccccc1Cl` [Example 32, 3-[(1R)-1-(2-chlorophenyl)ethoxy]-5-(3H-imidazo[4,5-c]pyridin-3-yl)thiophene-2-carboxamide] was tested, and the IC50 was less than 10 nM.
With `NC(=O)c1sc(-n2cnc3cnccc32)cc1OCc1ccccc1OC(F)(F)F` [Example 33, 5-(1H-imidazo[4,5-c]pyridin-1-yl)-3-{[2-(trifluoromethoxy)benzyl]oxy}thiophene-2-carboxamide] the IC50 was 10 to 100 nM.
Work on `NC(=O)c1sc(-n2cnc3cnccc32)cc1OCc1ccc(F)cc1C(F)(F)F` [Example 34, 3-{[4-fluoro-2-(trifluoromethyl)benzyl]oxy}-5-(1H-imidazo[4,5-c]pyridin-1-yl)thiophene-2-carboxamide] yielded an IC50 of 10 to 100 nM.
Work on `NC(=O)c1sc(-n2cnc3cnccc32)cc1OCc1cccc(C(F)(F)F)c1` [Example 35, 5-(1H-imidazo[4,5-c]pyridin-1-yl)-3-{[3-(trifluoromethyl)benzyl]oxy}thiophene-2-carboxamide] yielded an IC50 of 10 to 100 nM.
In the case of `NC(=O)c1sc(-n2cnc3cnccc32)cc1OCc1ccc(C(F)(F)F)cc1` [Example 36, 5-(1H-imidazo[4,5-c]pyridin-1-yl)-3-{[4-(trifluoromethyl)benzyl]oxy}thiophene-2-carboxamide], the IC50 is reported as 100 to 1000 nM.
Work on `CN1CCN(Cc2cc3ncn(-c4cc(OCc5ccccc5C(F)(F)F)c(C(N)=O)s4)c3cn2)CC1` [Example 37, 5-{6-[(4-methylpiperazin-1-yl)methyl]-3H-imidazo[4,5-c]pyridin-3-yl}-3-{[2-(trifluoromethyl)benzyl]oxy}thiophene-2-carboxamide] yielded an IC50 of 1000 to 10000 nM.
`NC(=O)c1sc(-n2cnc3ccncc32)cc1OCc1ccccc1OC(F)F` [Example 38, 3-{[2-(difluoromethoxy)benzyl]oxy}-5-(3H-imidazo[4,5-c]pyridin-3-yl)thiophene-2-carboxamide] gave an IC50 of 10 to 100 nM.
For `N#Cc1ccccc1COc1cc(-n2cnc3cnccc32)sc1C(N)=O` [Example 39, 3-[(2-cyanobenzyl)oxy]-5-(1H-imidazo[4,5-c]pyridin-1-yl)thiophene-2-carboxamide], the IC50 was 10 to 100 nM.
For `NC(=O)c1sc(-n2cnc3cnccc32)cc1OCc1ccccc1F` [Example 40, 3-[(2-fluorobenzyl)oxy]-5-(1H-imidazo[4,5-c]pyridin-1-yl)thiophene-2-carboxamide], the IC50 was 10 to 100 nM.
In the case of `NC(=O)c1sc(-n2cnc3ccncc32)cc1OCc1ccc(F)cc1C(F)(F)F` [Example 41, 3-{[4-fluoro-2-(trifluoromethyl)benzyl]oxy}-5-(3H-imidazo[4,5-c]pyridin-3-yl)thiophene-2-carboxamide], the IC50 is reported as 10 to 100 nM.
With `NC(=O)c1sc(-n2cnc3cnccc32)cc1OCc1ccccc1OC(F)F` [Example 42, 3-{[2-(difluoromethoxy)benzyl]oxy}-5-(1H-imidazo[4,5-c]pyridin-1-yl)thiophene-2-carboxamide] the IC50 was less than 10 nM.
With `NC(=O)c1sc(-n2cnc3ccncc32)cc1OCc1c(Cl)cccc1Cl` [Example 43, 3-[(2,6-dichlorobenzyl)oxy]-5-(3H-imidazo[4,5-c]pyridin-3-yl)thiophene-2-carboxamide] the IC50 was 10 to 100 nM.
In the case of `CC(Oc1cc(-n2cnc3cnc(CO)cc32)sc1C(N)=O)c1ccccc1C(F)(F)F` (centres unmarked) [Example 44, 5-[6-(hydroxymethyl)-1H-imidazo[4,5-c]pyridin-1-yl]-3-{1-[2-(trifluoromethyl)phenyl]ethoxy}thiophene-2-carboxamide], the IC50 is reported as less than 10 nM.
`CC(Oc1cc(-n2cnc3cnc(CN4CCN(C)CC4)cc32)sc1C(N)=O)c1ccccc1C(F)(F)F` (centres unmarked) [Example 45, 5-{6-[(4-methylpiperazin-1-yl)methyl]-1H-imidazo[4,5-c]pyridin-1-yl}-3-{-1-[2-(trifluoromethyl)phenyl]ethoxy}thiophene-2-carboxamide] showed an IC50 of less than 10 nM.
With `C[C@H](Oc1cc(-n2cnc3cnc(CO)cc32)sc1C(N)=O)c1ccccc1C(F)(F)F` [Example 46, 5-[6-(hydroxymethyl)-1H-imidazo[4,5-c]pyridin-1-yl]-3-{(1S)-1-[2-(trifluoromethyl)phenyl]ethoxy}thiophene-2-carboxamide] the IC50 was 100 to 1000 nM.
In the case of `C[C@@H](Oc1cc(-n2cnc3cc(CO)ncc32)sc1C(N)=O)c1ccccc1C(F)(F)F` [Example 47, 5-[6-(hydroxymethyl)-3H-imidazo[4,5-c]pyridin-3-yl]-3-{(1R)-1-[2-(trifluoromethyl)phenyl]ethoxy}thiophene-2-carboxamide], the IC50 is reported as 10 to 100 nM.
For `C[C@H](Oc1cc(-n2cnc3cnc(CN4CCN(C)CC4)cc32)sc1C(N)=O)c1ccccc1C(F)(F)F` [Example 48, 5-{6-[(4-methylpiperazin-1-yl)methyl]-1H-imidazo[4,5-c]pyridin-1-yl}-3-{(1S)-1-[2-(trifluoromethyl)phenyl]ethoxy}thiophene-2-carboxamide], the IC50 was 10 to 100 nM.
Work on `C[C@@H](Oc1cc(-n2cnc3cc(CN4CCN(C)CC4)ncc32)sc1C(N)=O)c1ccccc1C(F)(F)F` [Example 49, 5-{6-[(4-methylpiperazin-1-yl)methyl]-3H-imidazo[4,5-c]pyridin-3-yl}-3-{(1R)-1-[2-(trifluoromethyl)phenyl]ethoxy}thiophene-2-carboxamide] yielded an IC50 of 1000 to 10000 nM.
Molecule `C[C@@H](Oc1cc(-n2cnc3cc(CN)ncc32)sc1C(N)=O)c1ccccc1C(F)(F)F` [Example 50, 5-[6-(aminomethyl)-3H-imidazo[4,5-c]pyridin-3-yl]-3-{(1R)-1-[2-(trifluoromethyl)phenyl]ethoxy}thiophene-2-carboxamide] has an IC50 of 10 to 100 nM.
Molecule `CC(Oc1cc(-n2cnc3cnc(CO)cc32)sc1C(N)=O)c1ccc(F)cc1C(F)(F)F` (centres unmarked) [Example 51, 3-{1-[4-fluoro-2-(trifluoromethyl)phenyl]ethoxy}-5-[6-(hydroxymethyl)-1H-imidazo[4,5-c]pyridin-1-yl]thiophene-2-carboxamide] has an IC50 of less than 10 nM.
`C[C@@H](Oc1cc(-n2cnc3cnc(CO)cc32)sc1C(N)=O)c1ccccc1Br` [Example 52, 3-[(1R)-1-(2-bromophenyl)ethoxy]-5-[6-(hydroxymethyl)-1H-imidazo[4,5-c]pyridin-1-yl]thiophene-2-carboxamide] was tested, and the IC50 was less than 10 nM.
Work on `CC(Oc1cc(-n2cnc3cnc(CO)cc32)sc1C(N)=O)c1ccccc1OC(F)F` (centres unmarked) [Example 53] yielded an IC50 of less than 10 nM.
For `C[C@@H](Oc1cc(-n2cnc3cnc(CO)cc32)sc1C(N)=O)c1ccccc1Cl` [Example 54, 3-[(1R)-1-(2-chlorophenyl)ethoxy]-5-[6-(hydroxymethyl)-1H-imidazo[4,5-c]pyridin-1-yl]thiophene-2-carboxamide], the IC50 was less than 10 nM.
With `C[C@@H](Oc1cc(-n2cnc3cnc(CO)cc32)sc1C(N)=O)c1ccccc1F` [Example 55, 3-[(1R)-1-(2-fluorophenyl)ethoxy]-5-[6-(hydroxymethyl)-1H-imidazo[4,5-c]pyridin-1-yl]thiophene-2-carboxamide] the IC50 was less than 10 nM.
For `CCC(Oc1cc(-n2cnc3cnc(CO)cc32)sc1C(N)=O)c1ccccc1Cl` (centres unmarked) [Example 56, 3-{[1-(2-chlorophenyl)propyl]oxy}-5-[6-(hydroxymethyl)-1H-imidazo[4,5-c]pyridin-1-yl]thiophene-2-carboxamide], the IC50 was less than 10 nM.
`CC(Oc1cc(-n2cnc3cnc(CO)cc32)sc1C(N)=O)c1ccccc1F` (centres unmarked) [Example 57] showed an IC50 of less than 10 nM.
`C[C@@H](Oc1cc(-n2cnc3cnc(CN4CCN(S(=O)(=O)c5ccccc5)CC4)cc32)sc1C(N)=O)c1ccccc1C(F)(F)F` [Example 58, 5-(6-{[4-(phenylsulfonyl)piperazin-1-yl]methyl}-1H-imidazo[4,5-c]pyridin-1-yl)-3-{(1R)-1-[2-(trifluoromethyl)phenyl]ethoxy}thiophene-2-carboxamide] gave an IC50 of 10 to 100 nM.
`C[C@@H](Oc1cc(-n2cnc3cnc(CN4CCN(c5ccccc5)CC4)cc32)sc1C(N)=O)c1ccccc1C(F)(F)F` [Example 59, 5-{6-[(4-phenylpiperazin-1-yl)methyl]-1H-imidazo[4,5-c]pyridin-1-yl}-3-{(1R)-1-[2-(trifluoromethyl)phenyl]ethoxy}thiophene-2-carboxamide] gave an IC50 of 10 to 100 nM.
`C[C@@H](Oc1cc(-n2cnc3cnc(CN4CCN(C5CC5)CC4)cc32)sc1C(N)=O)c1ccccc1C(F)(F)F` [Example 60, 5-{6-[(4-cyclopropylpiperazin-1-yl)methyl]-1H-imidazo[4,5-c]pyridin-1-yl}-3-{(1R)-1-[2-(trifluoromethyl)phenyl]ethoxy}thiophene-2-carboxamide] showed an IC50 of less than 10 nM.

From patent publication US8273890B2 (4SC AG, priority 2007, dated 2012)
